Assay results: US7247622B2, “Pharmaceutical compositions containing oxapenem-3-carboxylic acids” (Amura Limited, priority 2000, dated 2007)

Columns and labels:
[1] = human serum; cited from earlier work
E. coli ATCC 25922 = test: MIC by agar dilution (NCCLS), Class A β-lactamases; format: cell-based; details: CAZ alone or 2:1 ratio of ceftazidime with oxapenem, unit assumed
Procedure: (§1) The assays to determine the Minimum Inhibitory Concentration (MIC) were performed by Agar dilution according to NCCLS guidelines (2000).

E. coli TEM-1 = test: MIC by agar dilution (NCCLS), Class A β-lactamases; format: cell-based; details: CAZ alone or 2:1 ratio of ceftazidime with oxapenem, unit assumed
Procedure: as §1

[2] = Chemical stability: half-life of hydrolysis in phosphate buffer by UV spectroscopy; format: physicochemical; details: 37° C., physiological phosphate buffer pH 7.4, 10^−4M oxapenem
Procedure: The half-lives of hydrolysis were determined at 37° C. in physiological phosphate buffer pH 7.4 by UV spectroscopy at 265 nm at a 10^−4M concentration of oxapenem

[3] = Stability in blood serum, determined microbiologically by agar diffusion test; format: in vitro ADME, bovine
Procedure: The blood serum stability was determined microbiologically using an agar diffusion test with Escherichia coli TEM 1 (penicillin resistant). The oxapenems were incubated with sterile bovine serum (OXOID) at 37° C. in 0.033% concentration.

[4] = Plasma blood levels in mice following subcutaneous administration; format: in vivo; details: for bioavailability: sub-cutaneous administration, compared with salts XOB and U
Procedure: The plasma blood levels in mice (mean of 3 per time point) of compositions XOB, YOB, PFOB and […] were measured at time points of 5, 10, 20 and 30 minutes following subcutaneous (SC) administration at a dose of 50 mg per kg. The results are shown in Table 2 and illustrated in FIG. 1.

E. cloacae 84-CON = test: MIC by agar dilution (NCCLS), de-repressed Class C β-lactamases; format: cell-based; details: unit assumed
Procedure: as §1

C. freundii C2-con = test: as above; format: cell-based; details: unit assumed
Procedure: as §1

E. cloacae Hennessy = test: as above; format: cell-based; details: unit assumed
Procedure: as §1

S marcescens S2-con = test: as above; format: cell-based; details: unit assumed
Procedure: as §1

E. cloacae P99 = test: as above; format: cell-based; details: unit assumed
Procedure: as §1

E. coli TEM-6 = test: MIC by agar dilution (NCCLS), Class A β-lactamases; format: cell-based; details: CAZ alone or 2:1 ratio of ceftazidime with oxapenem, unit assumed
Procedure: as §1

E. coli TEM-9 = test: MIC by agar dilution (NCCLS), Class A β-lactamases; format: cell-based; details: CAZ alone or 2:1 ratio of ceftazidime with oxapenem, unit assumed
Procedure: as §1

E. coli TEM-10 = test: MIC by agar dilution (NCCLS), Class A β-lactamases; format: cell-based; details: CAZ alone or 2:1 ratio of ceftazidime with oxapenem, unit assumed
Procedure: as §1

E. coli TEM-3 = test: MIC by agar dilution (NCCLS), Class A β-lactamases; format: cell-based; details: CAZ alone or 2:1 ratio of ceftazidime with oxapenem, unit assumed
Procedure: as §1

[5] = CAZ alone or 1:1 ratio of ceftazidime with oxapenem
[6] = CAZ alone or 2:1 ratio of ceftazidime with oxapenem

SMILES | in vivo biological half life [1] | MIC (E. coli ATCC 25922) [µg/mL] | MIC (E. coli TEM-1) [µg/mL] | bioavailability [4] | MIC (E. cloacae 84-CON; [5]) [µg/mL] | MIC (E. cloacae 84-CON; [6]) [µg/mL] | MIC (C. freundii C2-con; [5]) [µg/mL] | MIC (C. freundii C2-con; [6]) [µg/mL] | MIC (E. cloacae Hennessy; [6]) [µg/mL] | MIC (S marcescens S2-con; [5]) [µg/mL] | also measured
C[C@@H](O)[C@H]1C(=O)N2C(C(=O)O)=C(SCCN=CN)C[C@H]12 [Imipenem] | 0.9 hrs |  |  |  |  |  |  |  |  |  | 
C[C@H](O)[C@H]1C(=O)N2C(C(=O)O)=C(C(C)(C)CCCN)O[C@H]12 [YOB, (5R,6R,1′S)-3-(4-amino-1,1-dimethylbutyl)-6-(1-hydroxyethyl)-7-oxo-4-oxa-1-azabicyclo[3.2.0]hept-2-ene-2-carboxylic Acid] |  | 0.03 | 0.06 | remarkably superior bioavailability |  |  |  |  |  |  | Half-live of hydrolysis [2]: 7.0 h; stability in blood serum ([3]; bovine serum, 37° C., compared to XOB): far more stable than XOB in blood serum; Serum half life at 37° C. ([3]; sterile bovine serum, 0.033% concentration): 2.4 h; Conc. (mg/L) 5 min ([4]; plasma, SC 50 mg per kg, 5 min, mean of 3): 40.12 mg/L; Conc. (mg/L) 10 min ([4]; plasma, SC 50 mg per kg, 10 min, mean of 3): 44.88 mg/L; Conc. (mg/L) 20 min ([4]; plasma, SC 50 mg per kg, 20 min, mean of 3): 13.79 mg/L; Conc. (mg/L) 30 min ([4]; plasma, SC 50 mg per kg, 30 min, mean of 3): 10.4 mg/L
CO/N=C(\C(=O)N[C@@H]1C(=O)N2C(C(=O)O)=C(CSc3nc(=O)c(=O)[nH]n3C)CS[C@H]12)c1csc(N)n1 [Ceftriaxon] | 5.8-8.7 hrs |  |  |  |  |  |  |  |  |  | 
C[C@@H](O)[C@H]1C(=O)N2C(C(=O)O)=C(C(C)(C)CCCN)O[C@H]12 [(5R,6R,1′R)-3-(4-amino-1,1-dimethylbutyl)-6-(1′-hydroxyethyl)-7-oxo-4-oxa-1-azabicyclo[3.2.0]hept-2-ene-2-carboxylic Acid] |  |  |  | remarkably superior bioavailability | 4 | 4 | 0.03 | 2 | 4 | 0.03 | concentration at 5 min ([4]; mouse, plasma, SC 50 mg per kg, 5 min, mean of 3, read-out: Conc. (mg/L) 5 min): 26.4 mg/L; concentration at 10 min ([4]; mouse, plasma, SC 50 mg per kg, 10 min, mean of 3, read-out: Conc. (mg/L) 10 min): 25.4 mg/L; concentration at 20 min ([4]; mouse, plasma, SC 50 mg per kg, 20 min, mean of 3, read-out: Conc. (mg/L) 20 min): 12.9 mg/L; concentration at 30 min ([4]; mouse, plasma, SC 50 mg per kg, 30 min, mean of 3, read-out: Conc. (mg/L) 30 min): 2.89 mg/L
O=C(O)[C@H]1/C(=C/CO)O[C@@H]2CC(=O)N21 [Clavulanate] | 0.7-1.4 hrs |  |  |  |  |  |  |  |  |  | 
CC(C)(O/N=C(\C(=O)N[C@@H]1C(=O)N2C(C(=O)[O-])=C(C[n+]3ccccc3)CS[C@H]12)c1csc(N)n1)C(=O)O [CAZ, Ceftazidime] | 1.7-2.1 hrs | 0.25 | 0.25 |  | > 64 | > 64 | 64 | 64 | > 64 | 1 | MIC (E. cloacae Hennessy; [5]): > 64 µg/mL; MIC (E. cloacae P99; [5]): 32 µg/mL; MIC (E. cloacae P99; [6]): 32 µg/mL; MIC (S marcescens S2-con; [6]): 1 µg/mL; MIC (E. coli TEM-6): > 64 µg/mL; MIC (E. coli TEM-9): > 64 µg/mL; MIC (E. coli TEM-10): > 64 µg/mL; MIC (E. coli TEM-3): 16 µg/mL
